Source: paper PMC7699649 (Communications Biology, 2020)
Non-standard residues stand in square brackets, D forms with d. Residues, ends and D or L forms follow the SMILES beside them.

Legend:
BAL cells = assay: Murine EMRSA-15 lung infection model: BAL total and differential cell count; format: in vivo, C57Bl6J mice; settings: 48 h
Experimental: Using the recently developed method[65], an overnight culture of EMRSA-15 was prepared in tryptic soy broth (TSB). EMRSA-15 was cultured in TSB overnight at 37 °C, adjusted to a starting OD600 of 0.025, and grown for additional 4 h for agar beads preparation. EMRSA-15 was embedded into agar beads by mixing the overnight culture with molten tryptic soy agar, which was then spun into warmed mineral oil. The preparation was cooled and centrifuged at 2700 × g, the remaining oil was eliminated, and the beads were washed in sterile PBS. The CFU content of the beads slurry was subsequently quantified on TSA plates and the beads slurry then diluted to 2 × 10^7 CFU/ml in sterile PBS to deliver a final dose of 1 × 10^6 CFU/mouse. Animal work was performed in accordance with the Animals (Scientific Procedures) Act of 1986 (United Kingdom) and 2012 revisions with local ethical approval of King’s College London. On day 0, male C57Bl6J mice (8–10 weeks, Charles River) were anaesthetised under Isoflurane and 50 µl inoculum of EMRSA-15 embedded in agar beads (10^6 CFU/mouse) was instilled directly into the respiratory tract via oropharyngeal dosing (o.a.). Sham control mice were inoculated with sterile PBS agar beads. […] Body weight was measured daily, and animals monitored at regular intervals for signs of pain and distress. After 48 h of pulmonary infection, animals were terminally euthanized using 25% urethane via intra-peritoneal injection. CFUs were quantified in lung homogenates. Lung homogenates were then centrifuged at 14000 rpm for 30 min at 4 °C and the supernatants were stored at −80 °C for future analysis. For BAL fluid collection and analysis (total and differential cell count), a 22-gauge catheter was inserted into the trachea and BAL was recovered by instillation of 0.5 ml of sterile PBS three times and total cells counts were performed by adding Turks stain in a 1:1 ratio. BAL fluid was then centrifuged, and supernatants were stored at −20 °C. Total levels of TNFα, IL-6, KC and MCP-1 were quantified from BAL fluid collected from all animals and measured by ELISA according to the manufacturer protocol (R&D Systems UK). Concentrations of all mediators were then normalised to total protein content of BAL fluid quantified via bicinchoninic acid total protein assays performed to manufacturers protocols (Thermofisher Scientific). […] Statistical analysis was by one-way ANOVA with Dunnett’s multiple comparisons test.

TNFα = assay: Murine EMRSA-15 lung infection model: BAL cytokine ELISA; format: in vivo, C57Bl6J mice; settings: vancomycin or D-pleurocidin-KR i.v., 48 h
S. aureus USA300 = settings: 200 mg/kg vancomycin i.p.; cited from earlier work
[1] = Murine EMRSA-15 lung infection model: body weight; format: in vivo, C57Bl6J mice; settings: cumulative 15 or 1.5 mg/kg/48 h D-pleurocidin-KR; 600 mg/kg vancomycin; i.v.
MCP-1 = assay: Murine EMRSA-15 lung infection model: BAL cytokine ELISA; format: in vivo, C57Bl6J mice; settings: vancomycin or D-pleurocidin-KR i.v., 48 h
KC = assay: as above; format: in vivo, C57Bl6J mice; settings: 600 mg/kg vancomycin or the two higher D-pleurocidin-KR doses (15, 1.5 mg/kg) i.v., 48 h
IL-6 = assay: as above; format: in vivo, C57Bl6J mice; settings: 600 mg/kg vancomycin or D-pleurocidin-KR (also lowest dose 0.15 mg/kg) i.v., 48 h
human red blood cells = assay: Haemolysis assay; format: cell-based; settings: human red blood cells in PBS, 1 h 37 °C, OD550, relative to 0.1% Triton-X-100
Experimental: Haemolysis was tested by incubating titrations of AMPs in PBS with freshly collected human red blood cells for 1 h at 37 °C. Control wells were treated with 0.1% Triton-X-100 to ensure complete lysis, or PBS-only to represent no lysis. Samples were spun down to remove non-lysed cells and the OD550 of the supernatant was measured using a Clariostar plate reader. The percentage of haemolysis was calculated as % haemolysis = (AP − AB)/(AC − AB) × 100, where AP is the absorbance value for a known peptide concentration, AC is the absorbance of the 0.1% Triton-X-100 control, AB is the absorbance of the PBS control. Data presented are averages and standard error from three biological replicate experiments.

HEK293 = format: cell-based, human; settings: 24 h
Experimental: (§1) HeLa and HEK293 cell lines were purchased from ECACC and cultured in Eagle’s Minimum Essential Media containing glutamine, supplemented with 10% FBS and 1X non-essential amino acids. A549 and Calu-3 cell lines were purchased from ATCC. […] Cytotoxicity was measured by incubating starter cultures of cells for 24 h in a 96 well plate, gently removing the supernatant and replacing it with dilutions of peptides and controls, incubating for a further 24 h and then staining of the cells with the second-generation tetrazolium dye, XTT.

HeLa = format: cell-based; settings: 24 h
Experimental: as §1

Calu-3 = format: cell-based; settings: 24 h
Experimental: as §1

A549 = format: cell-based; settings: 24 h
Experimental: as §1

EMRSA-15 = assay: 1H HR-MAS NMR metabolomics of bacterial pellets; format: cell-based, Staphylococcus aureus; settings: EMRSA-15 in MHB, sub-inhibitory challenge v unchallenged; fold change, 1H HR-MAS NMR of pellets
Experimental: S. aureus EMRSA-15 and P. aeruginosa RP73 were streaked on Mueller Hinton agar plates and RPMI (supplemented with 5% FBS) agar plates and incubated at 37 °C overnight or until single colonies formed. […] Cultures were incubated overnight at 37 °C without shaking and pelleted by centrifugation at 4 °C. The supernatant was removed and filtered separately for spent media analysis, the pellet was briefly washed three times with phosphate buffered saline (PBS). The pellets were frozen in liquid nitrogen and lyophilised overnight in an Alpha 1–2 LD plus freeze dryer (Martin Christ, Germany) and stored at −20 °C until required. Samples were transferred into HR-MAS inserts for use in 4 mm Bruker MAS rotor and resuspended in 30 μl of D2O containing 3-(Trimethylsilyl)propionic-2,2,3,3-D4 acid sodium salt (TMSP-2,2,3,3-D4). The removed supernatant was filtered through 0.2 μm filters and pH adjusted to within 0.3 pH units within the same sample set. The samples were supplemented with 10% D2O containing TMSP-2,2,3,3-D4 and loaded into 5.0 mm NMR tubes.
NMR spectra were collected at 600 MHz for ^1H on a Bruker Avance II spectrometer (Bruker Biospin, Coventry, UK) with a 4 mm HR-MAS probe at 310 K while spinning at 5 kHz. ^1H NMR spectra were acquired using a Carr-Purcell Meiboom-Gill pre-saturation (cpmgpr1d) pulse sequence with a spectrum width of 16.0 ppm and 9615 data points using 64 transients. Free induction decay was multiplied by an exponential function with 0.293 Hz line broadening. 2D ^1H–^1H correlation spectroscopy (COSY) and ^1H–^13C Heteronuclear Single Quantum Correlation (HSQC) experiments were performed on representative datasets using standard Bruker settings.
The spectra were Fourier transformed automatically using standard Bruker commands and manually phased and baseline corrected in Bruker TopSpin 4.0 (Bruker Biospin, Coventry, UK). Spectral pre-processing, cross-validation and multivariate analysis were carried out using the in-house programme developed by Dr Louic Vermeer and MVAPACK, an opensource Octave library for NMR metabolomic data processing and analysis. Pre-processing modifies NMR spectra and reduces the variances and influences which are not of interest and may interfere with data analysis, for example, residual water peak or noise and the TSP reference peak. Initially a principle component analysis was carried out to identify clustering spectra and potential outliers in the data, due to e.g. poor baseline. Data were then subject to probabilistic quotient normalisation before binning and alignment. Orthogonal Projections to Latent Structures Discriminant Analysis analyses were conducted to establish the quality of binary comparisons of the metabolomic data (Supplementary Table 4). […] The Mann–Whitney U test was used to compare means and associated p values were false discovery rate adjusted using the Benjamini-Hochberg method (α = 0.05). Box plots were generated using changes in normalised intensity for each metabolite and significant differences between challenges and controls were determined using a one-way ANOVA. Volcano plots and box plots were generated using in-house software developed for Jupyter Notepad using Python 3.7.0. Metabolites were assigned using the databanks: Chenomx NMR suite software (Chenomx Inc., Canada), Human Metabolome Database, BMRB, E. coli Metabolome Database and AOCS lipid library; and a comparison of chemical shifts to the literature, which was confirmed using 2D NMR spectra. Annotated spectra can be found in the supplementary materials (Supplementary Fig. 15). Metaboanalyst and KEGG were later used to identify key pathways that may be affected by these metabolites.

Row | SMILES | Toxicity HEK293 (EC50 / IC50) (HEK293) | Toxicity HeLa (EC50 / IC50) (HeLa) | Toxicity Calu-3 (EC50 / IC50) (Calu-3) | Toxicity A549 (EC50 / IC50) (A549) | fc 2-aminobutyrate (EMRSA-15) | fc Acetate (EMRSA-15) | fc Acetyl-Phosphocholine (1) (EMRSA-15) | fc Acetyl-Phosphocholine (2) (EMRSA-15) | fc Adenosine (EMRSA-15) | fc Alanine (EMRSA-15) | fc Aspartate (EMRSA-15) | fc Betaine (EMRSA-15) | fc Choline (EMRSA-15) | fc Citrulline (EMRSA-15) | fc Glutamate (EMRSA-15) | fc Glycerol (lipid headgroup) (1) (EMRSA-15) | fc Glycerol (lipid headgroup) (2) (EMRSA-15) | fc Glycerol (lipid headgroup) (3) (EMRSA-15) | fc Isoleucine (EMRSA-15) | fc Lactate (EMRSA-15) | further results
1 | CN[C@H](CC(C)C)C(=O)N[C@H]1C(=O)N[C@@H](CC(N)=O)C(=O)N[C@H]2C(=O)N[C@H]3C(=O)N[C@H](C(=O)N[C@H](C(=O)O)c4cc(O)cc(O)c4-c4cc3ccc4O)[C@H](O)c3ccc(c(Cl)c3)Oc3cc2cc(c3O[C@@H]2O[C@H](CO)[C@@H](O)[C@H](O)[C@H]2O[C@H]2C[C@](C)(N)[C@H](O)[C@H](C)O2)Oc2ccc(cc2Cl)[C@H]1O [vancomycin, reference compound] | – | – | – | – | – | – | – | – | – | – | – | – | – | – | – | – | – | – | – | – | neutrophil recruitment (BAL) (BAL cells; 600 mg/kg vancomycin or D-pleurocidin-KR (also lowest dose 0.15 mg/kg) i.v.): reduced; macrophage numbers in BAL (BAL cells; vancomycin or D-pleurocidin-KR i.v.): No effects; levels of TNFα in BAL (TNFα): No effects; reduction in S. aureus USA300 CFU (S. aureus USA300): comparable reduction; weight loss over the 48-h infection period [1]: mitigates this weight loss; levels of MCP-1 in BAL (MCP-1): No effects; KC levels in BAL (KC): fall to that of the uninfected group; IL-6 in BAL (IL-6): reduced
2 | CC(C)C[C@@H](NC(=O)[C@@H](Cc1ccc(O)cc1)NC(=O)[C@@H](Cc1c[nH]cn1)NC(=O)[C@H](NC(=O)[C@@H](CC(C)C)NC(=O)[C@@H](C)NC(=O)[C@@H](C)NC(=O)[C@@H](CCCCN)NC(=O)CNC(=O)[C@@H](C)NC(=O)[C@@H](Cc1c[nH]cn1)NC(=O)[C@@H](CCCCN)NC(=O)CNC(=O)[C@@H](C)NC(=O)[C@@H](Cc1c[nH]cn1)NC(=O)[C@@H](C)NC(=O)[C@@H](C)NC(=O)[C@@H](CCCCN)NC(=O)[C@@H](CCCCN)NC(=O)[C@@H](Cc1ccccc1)NC(=O)[C@@H](Cc1ccccc1)NC(=O)[C@@H](CO)NC(=O)CNC(=O)[C@@H](Cc1c[nH]c2ccccc12)NC(=O)CN)[C@H](C)O)C(N)=O [D-pleurocidin-VA] (H-G[dW]G[dS][dF][dF][dK][dK][dA][dA][dH][dA]G[dK][dH][dA]G[dK][dA][dA][dL][dT][dH][dY][dL]-NH2; N-terminus assumed) | (217.3 ± 46.5) µg/ml | (198.2 ± 10.2) µg/ml | (>250) µg/ml | (>250) µg/ml | 0.991 | 1.149 | 0.9923 | 1.003 | 1.125 | 0.9478 | 0.8483 | 0.9779 | 1.051 | 0.9363 | 0.896 | 0.9028 | 1.031 | 0.9777 | 1.148 | 1.293 | haemolysis at the highest concentration tested 400 µg/ml (human red blood cells): Neither pleurocidin-VA nor D-pleurocidin-VA induce detectable haemolysis; fc Leucine (EMRSA-15): 1.172; fc Lipid -CH=CH- (EMRSA-15): 1.134; fc Lipid-CH₃ (EMRSA-15): 1.116; fc Lysine (EMRSA-15): 1.027; fc N-acetyl-x (1) (EMRSA-15): 0.8941; fc N-acetyl-x (2) (EMRSA-15): 1.036; fc N-acetyl-x (3) (EMRSA-15): 0.9489; fc Proline (EMRSA-15): 1.056; fc Succinate (EMRSA-15): 0.8785; fc Unassigned 1.47ppm (EMRSA-15): 0.8868; fc Unassigned 3.4802ppm (EMRSA-15): 0.9293; fc Unassigned 8.55ppm (EMRSA-15): 0.9285; fc Uracil (EMRSA-15): 1.738; fc Valine (EMRSA-15): 1.029; fc ᴅ-alanine (LTA) (EMRSA-15): 1.157
3 | CC(C)C[C@@H](NC(=O)[C@@H](Cc1ccc(O)cc1)NC(=O)[C@@H](Cc1c[nH]cn1)NC(=O)[C@H](NC(=O)[C@@H](CC(C)C)NC(=O)[C@@H](C)NC(=O)[C@@H](C)NC(=O)[C@@H](CCCCN)NC(=O)CNC(=O)[C@H](NC(=O)[C@@H](Cc1c[nH]cn1)NC(=O)[C@@H](CCCCN)NC(=O)CNC(=O)[C@H](NC(=O)[C@@H](Cc1c[nH]cn1)NC(=O)[C@@H](C)NC(=O)[C@@H](C)NC(=O)[C@@H](CCCCN)NC(=O)[C@@H](CCCCN)NC(=O)[C@@H](Cc1ccccc1)NC(=O)[C@@H](Cc1ccccc1)NC(=O)[C@@H](CO)NC(=O)CNC(=O)[C@@H](Cc1c[nH]c2ccccc12)NC(=O)CN)C(C)C)C(C)C)[C@H](C)O)C(N)=O [D-pleurocidin] (H-G[dW]G[dS][dF][dF][dK][dK][dA][dA][dH][dV]G[dK][dH][dV]G[dK][dA][dA][dL][dT][dH][dY][dL]-NH2; N-terminus assumed) | (61.4 ± 3.9) µg/ml | (47.1 ± 2.1) µg/ml | (41.9 ± 1.8) µg/ml | (79.3 ± 7.2) µg/ml | 1.089 | 7.742 | 0.8504 | 0.9675 | 0.737 | 0.9988 | 0.9699 | 1.128 | 0.8079 | 0.7893 | 0.9017 | 1.108 | 0.9648 | 0.9439 | 0.8635 | 0.8326 | concentration at which 10% haemolysis is achieved (human red blood cells; three biological replicates): 240 µg/mL; fc Leucine (EMRSA-15): 0.8297; fc Lipid -CH=CH- (EMRSA-15): 1.03; fc Lipid-CH₃ (EMRSA-15): 0.9623; fc Lysine (EMRSA-15): 0.8706; fc N-acetyl-x (1) (EMRSA-15): 1.103; fc N-acetyl-x (2) (EMRSA-15): 1.06; fc N-acetyl-x (3) (EMRSA-15): 0.8909; fc Proline (EMRSA-15): 0.991; fc Succinate (EMRSA-15): 0.6241; fc Unassigned 1.47ppm (EMRSA-15): 0.9642; fc Unassigned 3.4802ppm (EMRSA-15): 1.011; fc Unassigned 8.55ppm (EMRSA-15): 5.383; fc Uracil (EMRSA-15): 0.4342; fc Valine (EMRSA-15): 0.8108; fc ᴅ-alanine (LTA) (EMRSA-15): 1.199
